From paper PMC9784215, “Silymarin Protects against Acute Liver Injury Induced by Acetaminophen by Downregulating the Expression and Activity of the CYP2E1 Enzyme” (Molecules, 2022)

Experiments:
[1] = system: APAP-induced ALI mice; test: APAP-induced ALI in mice: serum ALT/AST, liver reduced GSH, H&E histology; assay type: in vivo, mouse; conditions: APAP 350 mg/kg i.p., 24 h
Protocol: The levels of ALT and AST in mouse serum and reduced GSH in mouse livers were measured by West China Frontier Pharmatech (Chengdu, China).
The right lower lobe of the mouse liver was fixed with 4% paraformaldehyde for 24 h in preparation for H&E staining. The embedding and slicing processes for H&E staining were performed by Ao’Chuang Biotechnology Co., Ltd. (Chengdu, China). Images were acquired with a phase contrast microscope with 20× and 40× objective lenses. The scale bars were added with ImageJ software.

[2] = system: Cyp2e1; test: Cyp2e1 mRNA and protein expression in mouse liver (RT-qPCR, Western blot); assay type: in vivo; conditions: mice, single i.p. APAP 350 mg/kg, 24 h
Source text: Antibodies against CYP2E1 were kindly provided by Proteintech Biotechnology.

[3] = molecular target: CYP2E1 (Homo sapiens, UniProt P05181)
Protocol: (§1) The probe substrate CLX, 50 mM potassium phosphate buffer (KPI, pH 7.4), and 0.25 mg/mL HLMS or RLMs were mixed and then an NADPH-regenerating system (1 mM β-NADP, 5 mM D-glucose-6-phosphate, 1 U/mL glucose-6-phosphate dehydrogenase, and 5 mM MgCl2) were added to initiate reaction. […] HLMs or RLMs were incubated with CLX at 37 °C for 30 min. At the end of the incubation, 100 µL of precooled acetonitrile was added to terminate the reaction. After vortexing and centrifugation at 14,000 rpm for 5 min, 50 µL of supernatant mixed with 10 µL of the internal standard GEN was removed, and the sample was analyzed by HPLC–MS/MS.
(§2) Activities were expressed as a percentage of 6-OH-CLX production in the blank control.
(§3) Nonlinear regression analysis in GraphPad was used to calculate Km and Vmax. To determine the inhibitory type of CYP2E1 by SM, the above data were plotted as a Lineweaver–Burk plot.
(§4) Inhibition data were plotted as Dixon plots, and the inhibition constant (Ki) was calculated from the regression equation.

[4] = molecular target: T1, CYP2E1 (Rattus norvegicus, UniProt P05182); conditions: microsomes
Protocol: as §1, §2, §3, §4

[5] = molecular target: T1, CYP2E1; conditions: in vivo
Protocol: (§5) SD rats were randomly divided into two groups (six rats in each group). One group was orally administered 4% HP-β-CD (w/v) solution as a solvent control group and the other group was orally administered SM 45 mg/kg (dissolved in 4% HP-β-CD (w/v)) for 21 consecutive days. On the 22nd day, rats in the two groups were given a single oral dose of CLX 30 mg/kg (suspended in 0.5% CMC-Na solution (w/v)). […] After the final blood collection, rats were euthanized by intraperitoneal injection of 50% urethane.
(§6) The concentrations of APAP and its metabolites in rat plasma and the concentrations of CLX and 6-OH-CLX in rat plasma, and the phase I metabolic system in vitro were determined by HPLC—MS/MS. […] Briefly, a 50 μL plasma sample was vortexed with 10 μL of the internal standard solution, and 150 μL pf methanol was then added to the mixture and shaken for 3 min to precipitate the protein. The sample was centrifuged at 14,000 rpm for 5 min, and 10 µL of the supernatant was analyzed by LC–MS/MS. […] The noncompartmental analysis using Phoenix WinNonlin software (version 6.3, Pharsight Corp, Mountain View, CA, USA) was used to calculate the pharmacokinetic parameters of CLX and 6-OH-CLX.

[6] = molecular target: T1, CYP2E1; test: Pharmacokinetics of probe substrate CLX and 6-OH-CLX in rats after 21 days of SM pretreatment; conditions: single oral 30 mg/kg CLX, solvent control group
Protocol: as §5, §6

T1 sequence (P05182 whole entry): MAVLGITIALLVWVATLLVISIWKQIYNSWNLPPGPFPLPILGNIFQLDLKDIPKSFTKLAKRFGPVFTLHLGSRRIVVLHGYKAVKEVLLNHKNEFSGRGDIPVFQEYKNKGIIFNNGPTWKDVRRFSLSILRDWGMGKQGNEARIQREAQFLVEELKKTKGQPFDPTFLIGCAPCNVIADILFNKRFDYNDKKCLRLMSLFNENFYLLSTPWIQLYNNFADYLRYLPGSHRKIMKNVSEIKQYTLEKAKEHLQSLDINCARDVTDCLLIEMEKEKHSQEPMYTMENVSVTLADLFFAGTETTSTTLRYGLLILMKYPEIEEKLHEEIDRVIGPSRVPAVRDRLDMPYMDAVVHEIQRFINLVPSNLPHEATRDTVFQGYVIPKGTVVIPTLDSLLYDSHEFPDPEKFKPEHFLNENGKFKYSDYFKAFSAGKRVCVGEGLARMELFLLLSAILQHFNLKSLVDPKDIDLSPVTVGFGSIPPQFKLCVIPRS
CYP2E1 (Homo sapiens, UniProt P05181), sequence (P05181 whole entry): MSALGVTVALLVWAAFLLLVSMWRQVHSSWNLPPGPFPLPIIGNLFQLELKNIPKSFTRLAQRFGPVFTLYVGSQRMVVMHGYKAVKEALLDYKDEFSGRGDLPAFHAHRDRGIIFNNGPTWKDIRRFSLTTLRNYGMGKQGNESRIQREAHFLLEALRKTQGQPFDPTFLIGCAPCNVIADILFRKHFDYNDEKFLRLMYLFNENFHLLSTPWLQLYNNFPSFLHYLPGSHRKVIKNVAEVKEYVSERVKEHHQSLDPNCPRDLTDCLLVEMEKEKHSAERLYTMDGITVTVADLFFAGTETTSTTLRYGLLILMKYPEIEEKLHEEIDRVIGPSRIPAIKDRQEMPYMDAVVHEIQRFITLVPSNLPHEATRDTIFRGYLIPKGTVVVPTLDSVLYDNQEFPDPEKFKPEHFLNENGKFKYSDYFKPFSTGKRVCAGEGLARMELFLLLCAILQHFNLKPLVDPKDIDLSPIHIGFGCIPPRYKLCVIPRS

**Q.** CC(=O)Nc1ccc(O)cc1 [APAP, Acetaminophen] was tested. Which “liver histopathology (H&E), hepatic lobule structure” value [1] did it give?
**A.** severely damaged

**Q.** What about the “liver reduced GSH content vs solvent control group” value [1] of the same compound?
**A.** significantly reduced

**Q.** And the “serum ALT level vs solvent control group” value [1]?
**A.** significantly increased

**Q.** And the “serum AST level vs solvent control group” value [1]?
**A.** significantly increased

**Q.** What about the “liver Cyp2e1 mRNA and protein expression vs solvent control group” value [2] of the same compound?
**A.** significantly upregulated

**Q.** With silymarin as the compound, how does the “Km of CLX” value [3] read?
**A.** 1827 ± 318 µM

**Q.** And the “Vmax of CLX” value [3]?
**A.** 4.56 ± 1.67 nM/h/mg Protein

**Q.** And the IC50 ([3]; microsomes)?
**A.** 14.8 µM

**Q.** What about the Ki ([3]; microsomes) of the same compound?
**A.** 23.2 µM

**Q.** What about the IC50 [4] of the same compound?
**A.** 26.1 µM

**Q.** And the Ki [4]?
**A.** 9.49 µM

**Q.** And the “CL of CLX” value [5]?
**A.** 4.5353 ± 0.6998 mL/min/kg

**Q.** And the “Vd of CLX” value [5]?
**A.** 1.56626 ± 0.67478 L/kg

**Q.** And the “t1/2 of CLX” value [5]?
**A.** 3.92 ± 1.25 h

**Q.** What about the “tmax of CLX” value [5] of the same compound?
**A.** 0.58 ± 0.30 h

**Q.** Which “AUC0-t of 6-OH-CLX” value [6] does the source give for O=c1[nH]c2cc(Cl)c(O)cc2o1 [6-OH-CLX] here?
**A.** 287.58 ± 106.13 ng·h/mL

**Q.** And the “AUC0-∞ of 6-OH-CLX” value [6]?
**A.** 325.78 ± 127.17 ng·h/mL
